Measurements as given in patent publication US20230084927A1, “GLUCOSE UPTAKE INHIBITORS AND USES THEREOF” (METABOMED LTD., priority 2019, published 2023).

What was measured:
[1] = tested on: SDH-KO-HRAS cells (SDHB-deficient); experiment: Cellular / differential toxicity assay (CellTiter-Glo, 3 days); assay type: cell-based, murine; conditions: Mus musculus, 72 h, toxicity, SDH-KO cells, 3 days, CellTiter-Glo; read-out: EC50 (uM) SDH-KO-HTAS-C17
Experimental: (§1) Identification of compounds that target specifically SDH-deficient cells was done by screening a library of small-molecule by using a differential toxicity screen with SDHB-proficient vs. SDHB-deficient cells (the […] cells were described in Cardaci 2015).
(§2) Cells Used for the Differential Assays: SDH-WT; SDH-KO-HRAS
(§3) Cell Culture Conditions: • Medium: DMEM-F12 medium+1 mM Glutamine+3% FBS • Plates: 96 well plate—Black, clear flat bottom • Incubation time: 3 days • Compound concentration: 10 point dilution starting from 10 uM to 0.0065 uM or a lower range when needed. • Viability assay at the end of incubation: Celltiter-Glo (CTG) from Promega.
(§4) Protocol: • Day 1: Plate cells in 96 well plate together with the appropriate concentration of compound.
(§5) Incubate for 3 days at 37° C. in 5% CO2 tissue culture incubator. • Day 4: Check viability of cells by adding CTG reagent and read luminescence in plate reader
(§6) SDH-WT and SDH-KO cells were grown in DMEM F12 supplemented with 1 mM Glutamine+3% FBS were treated with different concentrations of the indicated compounds in FIG. 11. Cell viability was determined 72 hours later by CellTiter Glue reagent (Promega), the luminescence was measured with ClarioStar reader (BMG) and the EC50s were calculated by Prism.
as §6, with “compounds.” for “compounds in FIG. 11.”
(§7) The cells were grown in DMEM F12 supplemented with 1 mM Glutamine+3% FBS were treated with different concentrations of the indicated compounds. Cell viability was determined 72 hours later by CellTiter Glue reagent (Promega), the luminescence was measured with ClarioStar reader (BMG) and the EC50s were calculated by Prism. Murine SDHB-WT/KO, HRAS transformed isogenic pair (FIG. 12A); UOK269, Human Tumor-derived SDHB-deficient RCC in their WT counterpart with re-expression of SDHB (FIG. 12B); and ACHN, RCC cells, and their SDHB-KO (SDHB CRISPRed out) isogenic cells (FIG. 12C).

[2] = tested on: SDH-WT cells; experiment: as above; assay type: cell-based, murine; conditions: Mus musculus, 72 h, toxicity, SDH-WT cells, 3 days, CellTiter-Glo; read-out: EC50 (uM) SDH-WT
Experimental: as §1, §2, §3, §4, §5, §6
as §6, with “compounds.” for “compounds in FIG. 11.”
as §7

Structure (SMILES) | EC50 [1] [µM] | EC50 [2] [µM]
COCCOCCOCCOCCOCCOC(=O)c1c2c(nc3sc4c(NCCc5ccc6[nH]cnc6c5)ncnc4c13)CC(C)(C)OC2 [Compound 163] | 1 to 3 | > 10
COCCOCCOCCOCCOC(=O)c1c2c(nc3sc4c(NCCc5ccc6[nH]cnc6c5)ncnc4c13)CC(C)(C)OC2 [Compound 164] | < 1 | 3 to 10
COCCOCCOCCOC(=O)c1c2c(nc3sc4c(NCCc5ccc6[nH]cnc6c5)ncnc4c13)CC(C)(C)OC2 [Compound 165, 2-(2-(2-Methoxyethoxy)ethoxy)ethyl 4-((2-(1H-benzo[d]imidazol-6-yl)ethyl)amino)-8,8-dimethyl-8,10-dihydro-7H-pyrano[3″,4″:5′,6′]pyrido[3′,2′:4,5]thieno[3,2-d]pyrimidine-11-carboxylate] | 1 to 3 | > 10
CC1(C)Cc2nc3c(c(S(C)(=O)=O)c2CO1)-c1ncnc(NCCc2ccc4[nH]cnc4c2)c1S3(=O)=O [Compound 166] | 3 to 10 | 3 to 10
CSc1c2c(nc3sc4c(NCCc5ccc6nc[nH]c6c5)ncnc4c13)CC(C)(C)OC2 [Compound 167] | < 1 | < 1
CC(=O)OC1CCc2nc3sc4c(NCCc5ccc6[nH]cnc6c5)ncnc4c3cc2C1 (stereo not shown) [Compound 168] | < 1 | 1 to 3
OC1CCc2nc3sc4c(NCCc5ccc6[nH]cnc6c5)ncnc4c3cc2C1 (stereo not shown) [Compound 169] | < 1 | 1 to 3
CCOC(=O)c1c2c(nc3sc4c(NCCc5ccc6[nH]cnc6c5)ncnc4c13)CC(C)(C)OC2 [Compound 170, Ethyl 4-((2-(1H-benzo[d]imidazol-5-yl)ethyl)amino)-8,8-dimethyl-8,10-dihydro-7H-pyrano[3″,4″:5′,6′]pyrido[3′,2′:4,5]thieno[3,2-d]pyrimidine-11-carboxylate] | < 1 | < 1
CC1(C)Cc2nc3sc4c(NCCc5ccc6[nH]cnc6c5)ncnc4c3c(C(=O)O)c2CO1 [Compound 171, 4-((2-(1H-Benzo[d]imidazol-6-yl)ethyl)amino)-8,8-dimethyl-8,10-dihydro-7H-pyrano[3″,4″:5′,6′]pyrido[3′,2′:4,5]thieno[3,2-d]pyrimidine-11-carboxylic Acid] | 3 to 10 | 3 to 10
CC(CNc1ncnc2c1sc1nc3c(cc12)COC(C)(C)C3)c1ccc2c(c1)ncn2C (stereo not shown) [Compound 172] | 3 to 10 | 3 to 10
Cn1cnc2cc(CCNc3ncnc4c3sc3nc5c(cc34)COC(C)(C)C5)ccc21 [Compound 173] | < 1 | 3 to 10
CC1(C)Cc2nc3sc4c(NCCc5ccc(O)c([N+](=O)[O-])c5)ncnc4c3cc2CO1 [Compound 174] | 3 to 10 | < 1
CC1(C)Cc2nc3sc4c(NCCc5ccc6ocnc6c5)ncnc4c3cc2CO1 [Compound 175] | 1 to 3 | 3 to 10
CC(=O)OCc1nc2cc(CCNc3ncnc4c3sc3nc5c(cc34)COC(C)(C)C5)ccc2[nH]1 [Compound 176] | < 1 | 3 to 10
CC(O)c1nc2cc(CCNc3ncnc4c3sc3nc5c(cc34)COC(C)(C)C5)ccc2[nH]1 (stereo not shown) [Compound 177] | 1 to 3 | 3 to 10
CC(=O)c1nc2cc(CCNc3ncnc4c3sc3nc5c(cc34)COC(C)(C)C5)ccc2[nH]1 [Compound 178] | < 1 | 3 to 10
CC1(C)Cc2nc3sc4c(NCCc5ccc6[nH]c(CO)nc6c5)ncnc4c3cc2CO1 [Compound 179] | < 1 | 3 to 10
CNc1ccc(CCNc2ncnc3c2sc2nc4c(cc23)COC(C)(C)C4)cc1[N+](=O)[O-] [Compound 180] | < 1 | 3 to 10
CNc1ccc(CCN(C)c2ncnc3c2sc2nc4c(cc23)COC(C)(C)C4)cc1[N+](=O)[O-] [Compound 181] | 3 to 10 | 3 to 10
CC1(C)Cc2nc3sc4c(NCCc5ccc(NC(=O)C(F)(F)F)c([N+](=O)[O-])c5)ncnc4c3cc2CO1 [Compound 182] | 1 to 3 | 3 to 10
CC(=O)OCC(=O)Cc1ccc(CCNc2ncnc3c2sc2nc4c(cc23)COC(C)(C)C4)cc1N [Compound 183] | < 1 | 3 to 10

Structure (SMILES) | EC50 [1] [µM] | EC50 [2] [µM]
CC(=O)OCC(=O)Cc1ccc(CCNc2ncnc3c2sc2nc4c(cc23)COC(C)(C)C4)cc1[N+](=O)[O-] [Compound 184] | 3 to 10 | 3 to 10
CC(=O)OC(C)c1nc2cc(CCNc3ncnc4c3sc3nc5c(cc34)COC(C)(C)C5)ccc2[nH]1 (stereo not shown) [Compound 185] | 1 to 3 | 3 to 10
CC(=O)OC(C)C(=O)Nc1ccc(CCNc2ncnc3c2sc2nc4c(cc23)COC(C)(C)C4)cc1N (stereo not shown) [Compound 186] | 1 to 3 | 3 to 10
CC(=O)OC(C)C(=O)Nc1ccc(CCNc2ncnc3c2sc2nc4c(cc23)COC(C)(C)C4)cc1[N+](=O)[O-] (stereo not shown) [Compound 187] | 3 to 10 | 1 to 3
CC(C)c1nc2cc(CCNc3ncnc4c3sc3nc5c(cc34)COC(C)(C)C5)ccc2[nH]1 [Compound 188] | 3 to 10 | 1 to 3
CC1(C)Cc2nc3sc4c(NCCc5ccc6[nH]c(N)nc6c5)ncnc4c3cc2CO1 [Compound 189] | < 1 | 1 to 3
CC1(C)Cc2nc3sc4c(NCCc5ccc6[nH]c(-c7ccccc7)nc6c5)ncnc4c3cc2CO1 [Compound 190] | 1 to 3 | < 1
CC(=O)CNc1ccc(CCNc2ncnc3c2sc2nc4c(cc23)COC(C)(C)C4)cc1F [Compound 191] | 1 to 3 | 3 to 10
CC1(C)Cc2nc3sc4c(NCCc5ccc(NCc6ccccc6)c(N)c5)ncnc4c3cc2CO1 [Compound 192] | < 1 | < 1
CC1(C)Cc2nc3sc4c(NCCc5ccc(N)c(N)c5)ncnc4c3cc2CO1 [Compound 193] | < 1 | 1 to 3
Cc1nc2cc(CCNc3ncnc4c3sc3nc5c(cc34)COC(C)(C)C5)ccc2[nH]1 [Compound 194] | < 1 | < 1
COc1nc2cc(CCNc3ncnc4c3sc3nc5c(cc34)COC(C)(C)C5)ccc2[nH]1 [Compound 195] | < 1 | < 1
CC1(C)Cc2nc3sc4c(NCCc5ccc6[nH]c(=O)[nH]c6c5)ncnc4c3cc2CO1 [Compound 196] | < 1 | 3 to 10
CC1(C)Cc2nc3sc4c(NCCc5ccc(NC(=O)c6ccccc6)c([N+](=O)[O-])c5)ncnc4c3cc2CO1 [Compound 197] | 1 to 3 | 3 to 10
CC(=O)CN(C(=O)C(F)(F)F)c1ccc(CCNc2ncnc3c2sc2nc4c(cc23)COC(C)(C)C4)cc1F [Compound 198] | < 1 | 3 to 10
CC(C)C(=O)Nc1ccc(CCNc2ncnc3c2sc2nc4c(cc23)COC(C)(C)C4)cc1[N+](=O)[O-] [Compound 199] | 1 to 3 | 1 to 3
CC1(C)Cc2nc3sc4c(NCCc5ccc(NC(=O)C(F)(F)F)c(F)c5)ncnc4c3cc2CO1 [Compound 200] | 1 to 3 | 3 to 10
CC1(C)Cc2nc3sc4c(NCCc5ccc6[nH]nnc6c5)ncnc4c3cc2CO1 [Compound 201] | < 1 | 1 to 3
CC1(C)Cc2nc3sc4c(NCCc5ccc6occc6c5)ncnc4c3cc2CO1 [Compound 202] | < 1 | 3 to 10
CC1(C)Cc2nc3sc4c(NCCc5ccc(N)c(F)c5)ncnc4c3cc2CO1 [Compound 203] | < 1 | > 10
